This note sets out measurements from patent US8946260B2, “17α-hydroxylase/C17,20-lyase inhibitors” (Novartis AG, priority 2010, dated 2015).

Counter-ions that a name gives are not always drawn.

In the first test the target is T1, recombinant Human CYP17 enzyme (17-20 lyase) (Homo sapiens, UniProt P05093).
T1 construct: made in house; host or cells: A549 cells, adenoviral expression system; purified cell membrane preparations
T1 sequence (P05093 1-508): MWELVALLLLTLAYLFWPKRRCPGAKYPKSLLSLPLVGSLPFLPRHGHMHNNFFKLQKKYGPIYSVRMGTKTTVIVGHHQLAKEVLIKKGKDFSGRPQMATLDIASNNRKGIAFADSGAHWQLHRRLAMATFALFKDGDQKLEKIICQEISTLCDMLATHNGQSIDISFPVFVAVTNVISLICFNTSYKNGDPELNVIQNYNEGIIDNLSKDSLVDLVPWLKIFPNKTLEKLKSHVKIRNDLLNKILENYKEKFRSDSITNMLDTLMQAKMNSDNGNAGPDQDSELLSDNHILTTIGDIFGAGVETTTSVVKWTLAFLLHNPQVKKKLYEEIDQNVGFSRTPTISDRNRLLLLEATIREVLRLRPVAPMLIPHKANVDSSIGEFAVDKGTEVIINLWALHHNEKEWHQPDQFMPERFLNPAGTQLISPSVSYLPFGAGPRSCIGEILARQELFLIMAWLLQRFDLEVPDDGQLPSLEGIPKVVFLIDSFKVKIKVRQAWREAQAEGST
Put plainly: Cytochrome P450, 17-20 lyase (CYP17-lyase) assay, 17-α-hydroxy pregnenolone [21-3H] as substrate. It counts as biochemical. Particulars: at 10 μM; read-out: hCYP17 Lyase % Inh. From the text:
1) Cytochrome P450, 17-20 Lyase (CYP17-Lyase) Assay Development Using Recombinant Human CYP17 Enzyme and 17-α-Hydroxy Pregnenolone [21-3H] as the Substrate.
Cytochrome P450, 17-α-Hydroxylase, 17-20 lyase (CYP17) is a multi functional enzyme that plays a key role in the biosynthesis of steroid hormones. It catalyses both conventional hydroxylation and also the carbon-carbon bond cleavage reactions (Peter Lee-Robichaud et al, Biochem. J, (1997) 321, 857-63). In the hydroxylation reaction, it converts progesterone and pregnenolone to the corresponding hydroxylated products 17-α-hydroxy progesterone and 17-α-hydroxy pregnenolone. In the lyase reaction, it catalyzes the conversion of these hydroxylated substrates to Androstenedione and Dehydroepiandrosterone (DHEA) respectively. In the Cyp17 lyase assay described here, the conversion of 17-α-hydroxy pregnenolone to Dehydroepiandrosterone and acetic acid is being monitored.
Assay method was adopted from a published protocol with some modifications to suit our requirements (Dmitry N Grigoryev et al, Analytical Biochemistry, (1999) 267, 319-330). The conversion of 17-α-hydroxy pregnenolone to Dehydroepiandrosterone is accompanied by the release of acetic acid. In the Cyp17 lyase assay, 17-α-hydroxy pregnenolone labeled with tritium (3H) at position 21 is used as the substrate. Chloroform extraction removes the radioactive steroids and acetic acid is taken into aqueous layer. The tritiated acetic acid released in the assay thus extracted is quantified to determine the enzyme activity.
Initial buffer conditions were, 50 mM Phosphate buffer, pH 7.5 was used as the starting buffer for Cyp17 lyase activity based on the data published in US patent publication No. US2004/0198773 A1. […] Human Cyp 17 gene was cloned and expressed in Adenoviral expression system in A549 cell lines. The purified cell membrane preparations were used as the source for Human CYP17 enzyme. Total protein concentration: 8 mg/mL.
For routine screening, the assay was set up with 16 μg of enzyme in 50 μL reaction volume. 17α-hydroxy pregnenolone [21-3H] was added to a final concentration of 0.25 μM. NADPH is used at a final concentration of 4.2 mM. Total reaction volume was made up to 50 μL with 50 mM Phosphate buffer pH 7.5. The reaction mixture was incubated at room temperature for 90 minutes with gentle shaking. The reaction was stopped by the addition of 100 μL of buffer. 500 μL of 5% freshly prepared activated charcoal was added to the solution and mixed well by vortexing. The samples were centrifuged at 17568×g for 5 minutes. (14000 rpm). The supernatant was carefully transferred to fresh tube and 1.3 mL of scintillation fluid was added, mixed by vortexing.
The radioactivity was measured in a 1450 MicroBeta TriLux™ scintillation counter from Wallac-Perkin Elmer®, USA. The measurements were carried out in 2.0 mL Eppendorf™ tubes. Each tube was counted for 1 minute. The amount of tritiated acetic acid released is proportional to the lyase activity. Percent lyase activity in presence of inhibitor was calculated using the formula given below.
[formula] • Sample: Enzyme reaction in presence of inhibitor. • Positive control: Enzyme reaction without inhibitor but containing DMSO at 1% final concentration. • Blank—Contains all reagents except enzyme. • % Inhibition=100%−% Lyase activity
For IC50 determination, the % inhibition was plotted as a function of inhibitor concentration. The data was fitted to sigmoidal equation using Graphpad Prism® software IV to generate IC50 values.
As for `Cc1ccncc1N1CCc2ccc(F)c(NCC3CC3)c2C1=O` [Example 39A, 8-(cyclopropylmethylamino)-7-fluoro-2-(4-methylpyridin-3-yl)-3,4-dihydroisoquinolin-1(2H)-one, acetate salt], the inhibition at 10 µM was 76%. Same read-out and setting: then `Cc1ccncc1N1CCc2ccc(Nc3ccccc3)cc2C1=O` [Example 30A, 2-(4-methylpyridin-3-yl)-7-(phenylamino)-3,4-dihydroisoquinolin-1(2H)-one], with 41%.

For the molecule `Cc1ccncc1-n1ccc2ccc(C(F)(F)F)cc2c1=O` [Example 29A, 2-(4-Methyl-pyridin-3-yl)-7-trifluoromethyl-2H-isoquinolin-1-one], the inhibition at 10 µM is 66%.

`Cc1ccncc1N1CCc2ccsc2C1=O` [Example 5A, 6-(4-Methyl-pyridin-3-yl)-5,6-dihydro-4H-thieno[2,3-c]pyridin-7-one]: the inhibition at 10 µM amounted to 91%.

The test is the same for the next values; noted with them: human CYP17 lyase; substrate 0.25 μM; room temperature, 90 minutes.
With `O=c1c2c(ccn1-c1cnccc1C(F)(F)F)[nH]c1ccccc12` [Example 63A, 2-(4-(trifluoromethyl)pyridin-3-yl)-2,5-dihydro-1H-pyrido[4,3-b]indol-1-one], the “Lyase IC 50 nM Human” value is recorded as “NOT ACTIVE”.

The test is the same for the next values; noted with them: human CYP17 lyase; substrate 0.25 μM; room temperature, 90 minutes; read-out: Lyase IC 50 nM Human.
As for `Cc1ccncc1N1CCc2cc(F)c(Cl)cc2C1=O` [Example 84A, 7-chloro-6-fluoro-2-(4-methylpyridin-3-yl)-3,4-dihydroisoquinolin-1(2H)-one], the IC50 amounted to 5.3 nM. Consider `Cc1ccncc1N1CCc2ccc(C(F)(F)F)c(F)c2C1=O` [Example 47A, 8-Fluoro-2-(4-methyl-pyridin-3-yl)-7-trifluoromethyl-3,4-dihydro-2H-isoquinolin-1-one], for which the IC50 is 12 nM.

Consider `Cc1ccncc1-n1ccc2[nH]c3ccccc3c2c1=O` [Example 62A, 2-(4-methylpyridin-3-yl)-2,5-dihydro-1H-pyrido[4,3-b]indol-1-one], for which the IC50 is 17 nM. In the case of `Cc1ccncc1N1CCc2cc(O)ccc2C1=O` [Example 11B, 6-Hydroxy-2-(4-methyl-pyridin-3-yl)-3,4-dihydro-2H-isoquinolin-1-one], the IC50 is 139 nM. As for `Cc1ccncc1N1CCc2ccc(F)c(Cl)c2C1=O` [Example 34A, 8-chloro-7-fluoro-2-(4-methylpyridin-3-yl)-3,4-dihydroisoquinolin-1(2H)-one], the IC50 came out at 149 nM. Still for that read-out and setting: then `Cc1ccncc1N1CCc2sc3ccc(F)cc3c2C1=O` [Example 50A, 8-Fluoro-2-(4-methylpyridin-3-yl)-3,4-dihydrobenzo[4,5]thieno[3,2-c]pyridin-1(2H)-one], with 6 nM; and `CCn1c2c(c3ccccc31)CC(C)N(c1cnccc1C)C2=O` (centres unmarked) [Example 46A, 9-Ethyl-3-methyl-2-(4-methyl-pyridin-3-yl)-2,3,4,9-tetrahydro-b-carbolin-1-one], with 44 nM.

Regarding `N#Cc1cc2c(cc1Cl)C(=O)N(c1cnccc1C1CC1)CC2` [Example 91A, 7-chloro-2-(4-cyclopropylpyridin-3-yl)-1-oxo-1,2,3,4-tetrahydroisoquinoline-6-carbonitrile], the IC50 turned out to be 11 nM.

With `O=C1c2cc(C(F)(F)F)ccc2CCN1c1cccnc1` [Example 16A, 2-Pyridin-3-yl-7-trifluoromethyl-3,4-dihydro-2H-isoquinolin-1-one], the IC50 turned out to be 175 nM.

Turning to `Cc1ccncc1N1CCc2sc3ccccc3c2C1=O` [Example 9A, 2-(4-Methyl-pyridin-3-yl)-3,4-dihydro-2H-benzo[4,5]thieno[3,2-c]pyridin-1-one], the IC50 is 1.5 nM. Regarding `CCn1c2c(c3ccccc31)CCN(c1cnccc1C)C2=O` [Example 38A, 9-ethyl-2-(4-methylpyridin-3-yl)-2,3,4,9-tetrahydro-1H-pyrido[3,4-b]indol-1-one], the IC50 is 23 nM. On to `COc1ccc2c(c1)CCN(c1cnccc1C)C2=O` [Example 11A, 6-Methoxy-2-(4-methyl-pyridin-3-yl)-3,4-dihydro-2H-isoquinolin-1-one], for which the IC50 worked out at 214 nM. `O=C1c2c(sc3ccccc23)CCN1c1cnccc1C1CC1` [Example 76A, 2-(4-cyclopropylpyridin-3-yl)-3,4-dihydrobenzo[4,5]thieno[3,2-c]pyridin-1(2H)-one]: the IC50 turned out to be 4.2 nM.

With `O=C1c2c(sc3ccccc23)CCN1c1cnccc1C(F)(F)F` [Example 58A, 2-(4-trifluoromethylpyridine-3-yl)-3,4-dihydro-2H-benzo[4,5]thieno[3,2-c]pyridin-1-one], the IC50 was determined as 218 nM.

As to `Cc1ccncc1N1CCc2cc(C(F)(F)F)ccc2C1=O` [Example 17A, 2-(4-Methyl-pyridin-3-yl)-6-trifluoromethyl-3,4-dihydro-2H-Isoquinolin-1-one], the IC50 stood at 95 nM. Same read-out and setting: with `O=C1c2cc(Cl)c(F)cc2CCN1c1cnccc1C1CC1` [Example 82A, 7-chloro-2-(4-cyclopropylpyridin-3-yl)-6-fluoro-3,4-dihydroisoquinolin-1(2H)-one] the figure was 3 nM; with `Cc1ccncc1N1CCc2ccc(-c3ccc(F)cc3)cc2C1=O` [Example 3A, 7-(4-Fluoro-phenyl)-2-(4-methyl-pyridin-3-yl)-3,4-dihydro-2H-isoquinolin-1-one], 1210 nM. On to `Cc1ccncc1N1CCc2ccc(OC(F)(F)F)cc2C1=O` [Example 51A, 2-(4-Methylpyridin-3-yl)-7-(trifluoromethoxy)-3,4-dihydroisoquinolin-1(2H)-one], for which the IC50 came to 22 nM. `Cc1ccncc1N1CCc2c([nH]c3ccccc23)C1=O` [Example 61A, 2-(4-methylpyridin-3-yl)-2,3,4,9-tetrahydro-1H-pyrido[3,4-b]indol-1-one]: the IC50 came out at 1510 nM.

`O=C1c2cc(Cl)c(Cl)cc2CCN1c1cnccc1C(F)(F)F` [Example 55A, 6,7-dichloro-2-(4-(trifluoromethyl)pyridin-3-yl)-3,4-dihydroisoquinolin-1(2H)-one]: the IC50 came to 125 nM. Still for that read-out and setting: with `Cc1ccncc1N1CCc2ccc(OCC3CC3)cc2C1=O` [Example 31A, 7-(cyclopropylmethoxy)-2-(4-methylpyridin-3-yl)-3,4-dihydroisoquinolin-1 (2H)-one] the figure was 727 nM.
